Values joined by “and” are separate entries in the source; they are usually repeats but may differ in a detail not shown here. Equal entries are not always repeated. Where two headings read alike, the source gives them in different places.
What was measured:
[1] = biological target: T1, CXCR3 (Homo sapiens, UniProt P49682); assay: [35S]GTPγS incorporation assay; format: biochemical; details: for Emax: read-out: CXCR3 Efficacy (%) ± SEM; for CXCR3 pEC50 ± SEM: mean of three experiments in triplicate; for EC50: read-out: EC50 / potency in [35S]GTPγS incorporation
T1 construct: expressed in transfected cells; host or cells: HEK293 / HEK293T cells, stably transfected; membrane preparations
T1 sequence (P49682 1-368): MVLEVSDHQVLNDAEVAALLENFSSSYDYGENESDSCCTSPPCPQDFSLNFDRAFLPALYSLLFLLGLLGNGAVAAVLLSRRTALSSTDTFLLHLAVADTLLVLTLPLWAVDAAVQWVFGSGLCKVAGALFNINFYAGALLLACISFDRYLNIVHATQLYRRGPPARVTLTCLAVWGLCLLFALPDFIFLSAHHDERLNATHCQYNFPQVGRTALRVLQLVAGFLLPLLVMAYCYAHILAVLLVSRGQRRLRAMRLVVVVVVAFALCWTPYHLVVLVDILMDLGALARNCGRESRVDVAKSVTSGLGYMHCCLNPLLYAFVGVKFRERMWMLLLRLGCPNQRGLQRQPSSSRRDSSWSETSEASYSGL
Experimental: Membrane preparation for allosteric radioligand RAMX3 displacement and [^35S]GTPγS incorporation assays: The human embryonic kidney (HEK) cells stably expressing the human CXCR3 receptor were cultured in 150-mm cell culture plates in DMEM/F-12 supplemented with 10% fetal bovine serum (FBS), 2 mM L-glutamine, 1% penicillin-streptomycin, 300 µgmL^-1 Zeocin and incubated at 37 °C in a humid atmosphere with 5% CO2. At 100% confluency cells were washed with PBS twice, treated with Tris EDTA buffer (10 mM Tris, 0.5 mM EDTA, 5 mM KCl, 140 mM NaCl, pH 7.4), and harvested using a cell scraper. Cells were pelleted at 1100×g for 8 min at 4 °C, resuspended in Tris-EDTA-MgCl2 buffer (50mM Tris, 5 mM EDTA, 1.5 mM CaCl2, 5 mM MgCl2, 5 mM KCl, 120 mM NaCl, pH 7.4) and followed by lysis with an Ultra-Turrax. After centrifugation at 50,000•g, at 4°C for 18 min the membranes were resuspended in the binding buffer (50 mM Tris, 1 mM EDTA, 5 mM MgCl2 and subsequently homogenized with a glass-Teflon homogenizer (20 strokes). The homogenized membranes were shock-frozen in liquid nitrogen and stored at -80°C. The protein concentration was determined with the Lowry method with bovine serum albumin used as a standard.^35
[^35S]GTPγS incorporation assay: The [^35S]GTPγS incorporation assay was performed on membrane preparations of stably transfected HEK293 cells that expressed the CXCR3 receptor. The assay was carried out in 96-well plates at the final volume of 200 µL. The incubation buffer contained 20 mM HEPES, 10 mM MgCl2•6H20,100 mM NaCl and 100 mg/L saponin (pH 7.4). Membranes (30 µgmL^-1 of membrane protein), various concentrations of test compound and CXCL11, and 1 µM GDP were preincubated in the absence of [^35S]GTPγS for 30 min at 37 °C. After the addition of 0.10 nM [^35S]GTPγS membranes were incubated for additional 30 min at 37 °C. Incubation was terminated by filtration through Whatman GF/B filters soaked with ice cold PBS. The filter-bound radioactivity was measured as described above. Three to four experiments per compound were performed with each concentration in triplicate.
The activation of G proteins was explored in terms of CXCR3 mediated [^35S]GTPγS incorporation. In the [^35S]GTPγS incorporation assay the membrane preparations of HEK293T cells stably expressing CXCR3 were used. The activation of G proteins was monitored as the incorporation of [^35S]GTPγS and thus increase in the incorporated radioactivity. The potency and efficacy of the novel compounds was first compared to the reference compound 46/VUF10661. […] Table 1. The ability of the 46/VUF10661 based positive allosteric modulators to activate CXCR3 as measured in the [35S]GTPγS incorporation assay.[a]

[2] = biological target: T2, CXCR3-PK1 (Homo sapiens, UniProt P49682); assay: β-arrestin 2 recruitment assay (PathHunter, DiscoveRx), CXCR3-PK1 construct; format: cell-based
T2 construct: expressed in transfected cells; host or cells: HEK293 cells stably expressing beta-gal enzyme acceptor (PathHunter, DiscoveRx), transiently transfected
T2 sequence (P49682 1-368): T1 sequence (P49682 1-368)
Experimental: (§1) β-arrestin 2 recruitment assay: The measurement of β-arrestin recruitment was performed utilizing the PathHunter assay purchased from DiscoveRx (DiscoveRx, Birmingham, U.K.) according to the manufacturer's protocol. HEK293 cells stably expressing β-gal enzyme acceptor were transiently transfected with the ProLink (PK1) tagged wildtype CXCR3 receptor using the TransIT-293 transfection reagent from Mirus (purchased from MoBiTec, Goettingen, Germany). The assay was carried out in 384-well plates containing 2000 cells in 20 µL. After incubation at 37°C (5% CO2, 95% relative humidity) overnight, various concentrations of test compounds or CXCL11 (prepared in PBS, pH 7.4, containing 0.20% BSA) were added and the incubation continued for 4 h. Detection mix was then added and incubated for further 60 min at room temperature. Chemiluminescence was determined with a microplate reader Clariostar (BMG labtech, Ortenberg, Germany).
(§2) The ability of the novel ligands according to the present invention to induce CXCR3-mediated β-arrestin 2 recruitment was investigated in the assay system PathHunter (DiscoveRx), which detects the recruitment of β-amestin 2 to the activated receptor using β-galactosidase (β-gal) enzyme fragment complementation. The inventors used two different ProLink tags, ProLink1 (PK1) and ProLink2 (PK2), of which PK2 has higher affinity for the enzyme acceptor to detect weak protein-protein interactions. The CXCR3-PK2 construct is readily able to detect the differences in the propensity of CXCL11 and CXCL10 to induce β-arrestin 2 recruitment at CXCR3. […] Table 3. Ability of the 46/VUF10661 based positive allosteric modulators to activate the CXCR3 as measured in the β-arrestin 2 recruitment assay (PathHunter, DiscoveRx).[a]

[3] = biological target: T3, CXCR3-PK2 (Homo sapiens, UniProt P49682); assay: β-arrestin 2 recruitment assay (PathHunter, DiscoveRx), CXCR3-PK2 construct; format: cell-based; details: for CXCR3-PK2 pEC50 ± SEM: HEK293-T cells, PathHunter
T3 construct: expressed in transfected cells
T3 sequence (P49682 1-368): T1 sequence (P49682 1-368)
Experimental: as §1, §2
To investigate the efficacy of identified partial agonists in the assay format, the inventors used the CXCR3-PK2 construct, which is characterized by higher sensitivity to detect β-arrestin 2 recruitment. The compounds which appeared as weak partial agonists under CXCR3-PK1 conditions appeared as strong partial agonists under CXCR3-PK2 conditions with the efficacy increased up to 80% (Table 4). FAUC1036 reached the efficacy of 66%. […] Table 4. Ability of the compound 5 based positive allosteric modulators to activate the CXCR3 as measured in the β-arrestin 2 recruitment assay (PathHunter, DiscoveRx).[a]

[4] = % of CXCL11 mediated effect, membrane preparations of HEK293T stably expressing CXCR3
[5] = membrane preparations of HEK293T stably expressing CXCR3
[6] = % of CXCL11 mediated effect, CXCR3-PK1, read-out: CXCR3-PK1 efficacy (%) (converted)
[7] = HEK293-T cells, PathHunter, CXCR3-PK1, two to three experiments in triplicate
[8] = % of CXCL11 mediated effect, CXCR3-PK2, read-out: CXCR3-PK2 efficacy (%) (converted)

CC(C)(C)OC(=O)N[C@@H](CCCCNC(=O)[C@@H]1Cc2ccccc2CN1)C(=O)NCC(c1ccccc1)c1ccccc1 [Compound 5, Tert-butyl ((S)-1-((2,2-diphenylethyl)amino)-1-oxo-6-((S)-1,2,3,4-tetrahydroisoquinoline-3-carboxamido)hexan-2-yl)carbamate]
CXCR3 Efficacy (%) ± SEM [1, 4]: 34±8% | Emax [1, 4]: 34% | CXCR3 pEC50 ± SEM [1, 5]: 5.7 ± 0.34 and 5.66±0.34 | EC50 [1, 5]: 2200 nM | CXCR3-PK1 efficacy (%) ([2]; % of CXCL11 mediated effect, CXCR3-PK1): 31±2% | Emax [2, 6]: 31% | CXCR3-PK1 pEC50 ± SEM [2, 7]: 6.50±0.17 | Emax [3, 8]: 79% | CXCR3-PK2 pEC50 ± SEM ([3]; CXCR3-PK2): 6.71±0.33

CC(=O)CCC(=O)N1Cc2ccccc2C[C@H]1C(=O)NCCCC[C@H](NC(=O)OC(C)(C)C)C(=O)NCC(c1ccccc1)c1ccccc1 [Compound 12, Tert-butyl((S)-1-((2,2-diphenylethyl)amino)-1-oxo-6-((S)-2-(4-oxopentanoyl)-1,2,3,4-tetrahydroisoquinoline-3-carboxamido)hexan-2-yl)carbamate]
CXCR3 Efficacy (%) ± SEM [1, 4]: No effect | CXCR3 pEC50 ± SEM [1, 5]: No effect | Emax [2, 6]: 34% | CXCR3-PK1 pEC50 ± SEM [2, 7]: 6.78±0.17 | Emax [3, 8]: 63% | CXCR3-PK2 pEC50 ± SEM ([3]; CXCR3-PK2): 6.64±0.33

COc1ccc(C(=O)CCC(=O)N2Cc3ccccc3C[C@H]2C(=O)NCCCC[C@H](NC(=O)OC(C)(C)C)C(=O)NCC(c2ccccc2)c2ccccc2)cc1OC [Compound 21, Tert-butyl ((S)-6-((S)-2-(4-(3,4-dimethoxyphenyl)-4-oxobutanoyl)-1,2,3,4-tetrahydroisoquinoline-3-carboxamido)-1-((2,2-diphenylethyl)amino)-1-oxohexan-2-yl)carbamate]
CXCR3 Efficacy (%) ± SEM [1, 4]: 18±1% | Emax [1, 4]: 18% | CXCR3 pEC50 ± SEM [1, 5]: 7.30±0.17 | β-arrestin 2 recruitment, intrinsic agonism (result in words) [2]: complete loss of intrinsic agonistic properties | CXCR3-PK1 pEC50 ± SEM [2, 7]: No effect

CC(C)(C)OC(=O)N[C@@H](CCCCNC(=O)[C@@H]1Cc2ccccc2CN1C(=O)CCCc1ccccc1)C(=O)NCC(c1ccccc1)c1ccccc1 [Compound 22, Tert-butyl ((S)-1-((2,2-diphenylethyl)amino)-1-oxo-6-((S)-2-(4-phenylbutanoyl)-1,2,3,4-tetrahydroisoquinoline-3-carboxammido)hexan-2-yl)carbamate]
CXCR3 pEC50 ± SEM [1, 5]: 5.07±0.50 | Emax [1]: 29 ± 15% | CXCR3-PK1 pEC50 ± SEM [2, 7]: No effect

CC(C)(C)OC(=O)N[C@@H](CCCCNC(=O)[C@@H]1Cc2ccccc2CN1C(=O)CCc1ccccc1)C(=O)NCC(c1ccccc1)c1ccccc1 [Compound 23, Tert-butyl((S)-1-((2,2-diphenylethyl)amino)-1-oxo-6-((S)-2-(3-phenylpropanoyl)-1,2,3,4-tetrahydroisoquinoline-3-carboxamido)hexan-2-yl)carbamate]
Emax [1, 4]: 30 ± 17% | CXCR3 pEC50 ± SEM [1, 5]: 5.07±0.50 | Emax [2, 6]: 19% | CXCR3-PK1 pEC50 ± SEM [2, 7]: 7.21±0.17 | Emax [3, 8]: 29% | CXCR3-PK2 pEC50 ± SEM ([3]; CXCR3-PK2): 6.71±0.30

CC(C)(C)OC(=O)N[C@@H](CCCCNC(=O)[C@@H]1Cc2ccccc2CN1C(=O)CCCC(=O)c1ccccc1)C(=O)NCC(c1ccccc1)c1ccccc1 [Compound 24, Tert-butyl ((S)-1-((2,2-diphenylelhyl)amino)-1-oxo-6-((S)-2-(5-oxo-5-phenylpentanoyl)-1,2,3,4-tetrahydroisoquinoline-3-carboxamido)hexan-2-yl)carbamate]
CXCR3 Efficacy (%) ± SEM [1, 4]: No efffect | CXCR3 pEC50 ± SEM [1, 5]: No effect | CXCR3-PK1 pEC50 ± SEM [2, 7]: 6.84±1.7 | Emax ([2]; read-out: CXCR3-PK1 efficacy (%)): 20% | CXCR3-PK2 pEC50 ± SEM ([3]; CXCR3-PK2): 6.78±0.35 | Emax ([3]; read-out: CXCR3-PK2 efficacy (%)): 56%

CC(C)(C)OC(=O)NCCCC[C@H](NC(=O)[C@@H]1Cc2ccccc2CN1C(=O)CCC(=O)c1ccccc1)C(=O)NCC(c1ccccc1)c1ccccc1 [Compound 44, Tert-buyl ((S)-6-((2,2-diphenylethyl)amino)-6-oxo-5-((S)-2-(4-oxo-4-phenylbutanoyl)-1,2,3,4-tetrahydroisoquinoline-3-carboxamido)hexyl)carbamate]
Emax [1, 4]: 47 ± 3% | CXCR3 pEC50 ± SEM [1, 5]: 5.88±0.10 | CXCR3-PK1 efficacy (%) at 10µM ([2]; @10µM, % of CXCL11 mediated effect, CXCR3-PK1): 70% | EC50 ([2]; HEK293-T cells, PathHunter, CXCR3-PK1, two to three experiments in triplicate, read-out: CXCR3-PK1 pEC50 ± SEM (converted)): < 10000 nM

NCCCC[C@H](NC(=O)[C@@H]1Cc2ccccc2CN1C(=O)CCC(=O)c1ccccc1)C(=O)NCC(c1ccccc1)c1ccccc1.O=C(O)C(F)(F)F [Compound 46, (S)-6-((2,2-diphenylethyl)amino)-6-oxo-5-((S)-2-(4-oxo-4-phenylbutanoyl)-1,2,3,4-tetrahydroisoquinoline-3-carboxamido)hexan-1-aminium 2,2,2-trifluoroacetate, reference compound]
Emax [1, 4]: 109 ± 3% | CXCR3 pEC50 ± SEM ([1]; membrane preparations of HEK293T stably expressing CXCR3, listed as 46/VUF10661, 2,2,2-trifluoroacetate): 6.2 ± 0.1 and 6.20±0.06 | EC50 [1, 5]: 600 nM | Emax [2, 6]: 139% | CXCR3-PK1 pEC50 ± SEM ([2]; HEK293-T cells, PathHunter, CXCR3-PK1, two to three experiments in triplicate, listed as 46/VUF10661, 2,2,2-trifluoroacetate): 5.89 ± 0.07 | higher efficacy than CXCL11 ([2]; β-arrestin 2 recruitment, relative to CXCL11): ~40%
